# In US9181218B2, “Compounds for improved stem cell differentiation into hepatocytes” (Hoffmann-La Roche Inc., priority 2013, dated 2015):
# Tested on: interferon-stimulated genes (ISGs)
# Test: Microarray analysis of iCell Hepatocytes treated with the compound of example 1
# Assay type: cell-based, Human
# Conditions: DAY 7
# Text: iCell Hepatocytes treated with the compound of example 1 results in the up and down-regulation of a host of genes; including a kinetic effect on interferon-stimulated gene (ISGs) expression. See FIGS. 15-I and 15-II, 16-I and 16-II and 18 and Table 1.
structure (smiles),measurement,value
"O=C(NCc1cccc(F)c1)c1cccc2nc(-c3c(NC[C@@H](O)c4ccccc4)cc[nH]c3=O)[nH]c12 [Example 1, 2-[4-((S)-2-hydroxy-2-phenyl-ethylamino)-2-oxo-1,2-dihydro-pyridin-3-yl]-3H-benzoimidazole-4-carboxylic acid 3-fluoro-benzylamide]",ARHGEF3 Raw Est Fold Change,−2.76
same,ASNS Raw Est Fold Change,1.63
same,ATP1B3 Raw Est Fold Change,−1.72
same,ATP10D Raw Est Fold Change,−2.21
same,AXL Raw Est Fold Change,5.52
same,B2M Raw Est Fold Change,−1.77
same,B4GALT5 Raw Est Fold Change,−2.50
same,BAG1 Raw Est Fold Change,1.33
same,BCL3 Raw Est Fold Change,−3.15
same,BHMT Raw Est Fold Change,100.46
same,BLVRA Raw Est Fold Change,−2.70
same,BRF2 Raw Est Fold Change,1.46
same,C1R Raw Est Fold Change,−2.64
same,C1S Raw Est Fold Change,−2.00
same,C4BPA Raw Est Fold Change,−3.52
same,C4orf33 Raw Est Fold Change,1.65
same,C6orf85 Raw Est Fold Change,1.31
same,C10orf10 Raw Est Fold Change,−6.70
same,CAPN2 Raw Est Fold Change,−1.90
same,CASP1 Raw Est Fold Change,1.40
same,CASP4 Raw Est Fold Change,−43.41
same,CASP5 Raw Est Fold Change,−11.12
same,CCL19 Raw Est Fold Change,2.16
same,CCND3 Raw Est Fold Change,−4.18
same,CD3D Raw Est Fold Change,−3.72
same,CD9 Raw Est Fold Change,4.66
same,CD38 Raw Est Fold Change,−60.43
same,CD47 Raw Est Fold Change,−2.51
same,CD163 Raw Est Fold Change,4.54
same,CD164 Raw Est Fold Change,−1.47
same,CD300LF Raw Est Fold Change,−15.50
same,CEBPD Raw Est Fold Change,−6.95
same,CFB Raw Est Fold Change,−2.96
same,CHST12 Raw Est Fold Change,−1.59
same,CKB Raw Est Fold Change,2.95
same,CLEC2D Raw Est Fold Change,2.54
same,CLEC4E Raw Est Fold Change,4.33
same,COL16A1 Raw Est Fold Change,1.53
same,CPT1A Raw Est Fold Change,1.49
same,CREB3L3 Raw Est Fold Change,−4.65
same,CREM Raw Est Fold Change,1.71
same,CRP Raw Est Fold Change,−63.77
same,CRYM Raw Est Fold Change,3.57
same,CSDA Raw Est Fold Change,−5.60
same,CTGF Raw Est Fold Change,−3.88
same,CX3CR1 Raw Est Fold Change,9.27
same,CXCL11 Raw Est Fold Change,3.15
same,CYP1B1 Raw Est Fold Change,−6.56
same,CYR61 Raw Est Fold Change,−7.93
same,DHFR Raw Est Fold Change,2.31
same,DNAPTP6 Raw Est Fold Change,2.61
same,EFNB2 Raw Est Fold Change,−7.87
same,EGR1 Raw Est Fold Change,−4.88
same,EHHADH Raw Est Fold Change,6.99
same,EIF2AK2 Raw Est Fold Change,−1.14
same,EIF2S2 Raw Est Fold Change,1.81
same,EMP1 Raw Est Fold Change,2.60
same,EPAS1 Raw Est Fold Change,−1.83
same,EREG Raw Est Fold Change,−21.64
same,ETS2 Raw Est Fold Change,−2.17
same,ETV6 Raw Est Fold Change,−1.87
same,ETV7 Raw Est Fold Change,−3.42
same,EWSR1 Raw Est Fold Change,−2.03
same,F3 Raw Est Fold Change,2.54
same,FAM70A Raw Est Fold Change,4.10
same,FAM102A Raw Est Fold Change,−1.88
same,FBXO6 Raw Est Fold Change,3.59
same,FCGR1A Raw Est Fold Change,2.56
same,FER1L3 Raw Est Fold Change,−2.43
same,FGG Raw Est Fold Change,−1.22
same,FLT1 Raw Est Fold Change,−1.38
same,FNDC3B Raw Est Fold Change,−2.02
same,G6PC Raw Est Fold Change,6.12
same,GALNT2 Raw Est Fold Change,−6.32
same,GBP2 Raw Est Fold Change,−4.50
same,GBP3 Raw Est Fold Change,2.28
same,GCH1 Raw Est Fold Change,1.83
same,GK Raw Est Fold Change,−2.38
same,GLB1 Raw Est Fold Change,−1.33
same,GLUL Raw Est Fold Change,3.54
same,GNB1 Raw Est Fold Change,−1.39
same,GPR171 Raw Est Fold Change,1.93
same,GRN Raw Est Fold Change,−1.37
same,HAO1 Raw Est Fold Change,3.59
same,HBE1 Raw Est Fold Change,−2.67
same,HDAC2 Raw Est Fold Change,−1.34
same,HEG1 Raw Est Fold Change,−4.07
same,HERC6 Raw Est Fold Change,−1.49
same,HESX1 Raw Est Fold Change,3.01
same,HIF1A Raw Est Fold Change,−4.78
same,HK2 Raw Est Fold Change,−3.18
same,HLA-DMA Raw Est Fold Change,−2.39
same,HLA-DOA Raw Est Fold Change,3.70
same,HPSE Raw Est Fold Change,−2.92
same,ICAM1 Raw Est Fold Change,−9.02
same,ID1 Raw Est Fold Change,−5.53
same,IER3 Raw Est Fold Change,−9.69
same,IFI16 Raw Est Fold Change,−11.00
same,IFIH1 Raw Est Fold Change,1.47
same,IFIT1 Raw Est Fold Change,16.72
same,IFIT3 Raw Est Fold Change,2.91
same,IFITM1 Raw Est Fold Change,−15.75
same,IFITM2 Raw Est Fold Change,−4.71
same,IFITM3 Raw Est Fold Change,−1.73
same,IFNGR1 Raw Est Fold Change,−3.76
same,IGHM Raw Est Fold Change,3.80
same,IKZF2 Raw Est Fold Change,−2.69
same,IL1RN Raw Est Fold Change,−2.59
same,IL6ST Raw Est Fold Change,−1.83
same,IL8 Raw Est Fold Change,−9.22
same,IL17RB Raw Est Fold Change,1.38
same,IL28RA Raw Est Fold Change,1.55
same,IMPA2 Raw Est Fold Change,−1.62
same,INPP5B Raw Est Fold Change,1.29
same,IQGAP1 Raw Est Fold Change,−2.60
same,IRF1 Raw Est Fold Change,1.36
same,IRF7 Raw Est Fold Change,−3.42
same,IRF8 Raw Est Fold Change,−1.86
same,ISOC1 Raw Est Fold Change,1.96
same,ITGA2 Raw Est Fold Change,−5.40
same,ITGA6 Raw Est Fold Change,1.89
